Measurements as given in patent publication US9700501B2, “Use of indole compounds as a cosmetic” (MERCK PATENT GESELLSCHAFT MIT BESCHRANKTER HAFTUNG, priority 2008, dated 2017).

How the values were obtained:
PPAR alpha = target: T1, PPAR alpha (Homo sapiens, UniProt Q07869); assay: PPAR-alpha transactivation assay (luciferase reporter, SK-Hep1 cells cotransfected with PPARα expression vector); type: cell-based; settings: for Fold Activation PPAR alpha: 36 h incubation, luciferase activity relative to control
T1 construct: expressed in transfected cells; host or cells: human SK-Hep1 cells
T1 sequence (Q07869 1-468): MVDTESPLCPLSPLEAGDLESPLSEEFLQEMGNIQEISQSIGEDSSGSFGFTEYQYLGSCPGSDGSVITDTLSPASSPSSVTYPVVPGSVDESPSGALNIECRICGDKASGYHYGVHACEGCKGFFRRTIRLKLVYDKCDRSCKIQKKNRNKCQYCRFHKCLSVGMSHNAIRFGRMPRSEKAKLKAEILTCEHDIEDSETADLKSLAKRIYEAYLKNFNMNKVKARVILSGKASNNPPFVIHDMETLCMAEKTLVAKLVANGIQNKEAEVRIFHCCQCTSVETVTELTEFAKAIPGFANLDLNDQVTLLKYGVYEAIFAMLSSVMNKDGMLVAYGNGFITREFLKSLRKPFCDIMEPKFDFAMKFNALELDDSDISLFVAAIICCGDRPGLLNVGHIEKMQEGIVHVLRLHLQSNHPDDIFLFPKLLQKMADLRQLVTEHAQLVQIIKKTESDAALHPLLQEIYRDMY
Text: (§1) Analysis of the activation of PPARα and PPARγ is based on the transfection of a DNA allowing the expression of a reporter gene (the gene of luciferase) under the control of the PPARs, either endogenous in the case of PPARγ or exogenous in the case of PPARα. The reporter plasmid J3TkLuc comprises three copies of the response element for PPARs of the human apo A-II gene (Staels, B et al. (1995), J. Clin. Invest., 95, 705-712) which are cloned upstream of the promoter of the thymidine kinase gene of the herpes simplex virus in the plasmid pGL3. This reporter gene was obtained by subcloning, in the plasmid pGL3, the plasmid J3TkCAT described above (Fajas, L et al. (1997), J. Biol. Chem., 272, 18779-18789). […] These cells were inoculated at the rate of 20,000 cells per well (96-well plates) and transfected with 150 ng of reporter DNA complexed with a mixture of lipids. In the case of the SK-Hep1 cells, an expression vector for PPARα, described by Sher, T. et al. (1993), Biochemistry, 32, 5598-5604, is cotransfected. After 5 hours, the cells are washed twice and incubated for 36 hours in the presence of the test compound in a fresh culture medium comprising 10% foetal calf serum. At the end of incubation, the cells are lysed and the luciferase activity is measured.

PPAR gamma = assay: PPAR-gamma transactivation assay (luciferase reporter, CV1 cells expressing PPARγ); type: cell-based, human; settings: for Fold Activation PPAR gamma: 36 h incubation, luciferase activity relative to control
Text: as §1

B16-V melanoma cells = assay: Inhibition of melanin synthesis in B16-V melanoma cells (whitening activity); type: cell-based; settings: 72 h, alpha-MSH stimulation, FIG. 1
Procedure: B16-V melanoma cells were incubated for 72 h with assay medium containing different amounts of test substances. The concentration depends on the results of the MTT-Assay. Only concentrations without effect on viability (after 24 h incubation) were used for further melanin evaluation. Every 24 hours medium was changed and replaced by fresh assay medium containing the compounds and alpha-MSH (stimulation of melanin synthesis). The cell number was determined and the cells got lysed using 1M NaOH. Afterwards the amount of melanin was measured at 405 nm with a microplatereader (Safire2™, Tecan). Different concentrations of synthetic melanin were used to produce a calibration curve. Melanin content was expressed as pg/cell.

[1] = system: epidermal differentiation proteins; assay: In vitro expression of epidermal differentiation proteins; type: cell-based; settings: own unpublished results

## CCOC(=O)c1c(C)n(CC(C)C)c2ccc(OC(C)(C(=O)O)c3ccccc3)cc12 (stereo not shown) [Compound, 2-Phenyl-2-(1-isobutyl-2-methyl-3-ethoxycarbonyl-5-indolyloxy)-propionic acid]
PPAR alpha
  PPAR-alpha activation (in words): activator
PPAR alpha; 0.1 μm
  Fold Activation PPAR alpha: 1.0 fold
PPAR alpha; 0.3 μm
  Fold Activation PPAR alpha: 1.3 fold
PPAR alpha; 1 μm
  Fold Activation PPAR alpha: 1.9 fold
PPAR alpha; 3 μm
  Fold Activation PPAR alpha: 2.3 fold
PPAR alpha; 6.25 μm
  Fold Activation PPAR alpha: 10.2 fold
PPAR alpha; 10 μm
  Fold Activation PPAR alpha: 6.7 fold
PPAR alpha; 12.5 μm
  Fold Activation PPAR alpha: 21.6 fold
PPAR alpha; 25 μm
  Fold Activation PPAR alpha: 34.8 fold
PPAR alpha; 30 μm
  Fold Activation PPAR alpha: 31.1 fold
PPAR alpha; 50 μm
  Fold Activation PPAR alpha: 42.0 fold
PPAR gamma
  PPAR-gamma activation (in words): activator
PPAR gamma; 0.1 μm
  Fold Activation PPAR gamma: 0.6 fold
PPAR gamma; 0.3 μm
  Fold Activation PPAR gamma: 1.8 fold
PPAR gamma; 1 μm
  Fold Activation PPAR gamma: 2.8 fold
PPAR gamma; 3 μm
  Fold Activation PPAR gamma: 3.0 fold
PPAR gamma; 6.25 μm
  Fold Activation PPAR gamma: 12.9 fold
PPAR gamma; 10 μm
  Fold Activation PPAR gamma: 4.3 fold
PPAR gamma; 12.5 μm
  Fold Activation PPAR gamma: 16.9 fold
PPAR gamma; 25 μm
  Fold Activation PPAR gamma: 18.7 fold
PPAR gamma; 30 μm
  Fold Activation PPAR gamma: 7.6 fold
PPAR gamma; 50 μm
  Fold Activation PPAR gamma: 18.8 fold
B16-V melanoma cells
  melanin inhibiting activity: superb melanin inhibiting activity
  melanin inhibiting activity compared with kojic acid: significantly better than kojic acid
[1]
  expression of epidermal differentiation proteins: increased expression of epidermal differentiation proteins
